Literature values, collected in patent US6071896A, “Suppression of thromboxane levels by percutaneous administration of aspirin” (Gundersen Clinic, Ltd., priority 1998, dated 2000).

How the values were obtained:
PGI2 synthesis = settings: cited from earlier work
gastric mucosa = settings: cited from earlier work
[1] = patients with rheumatic diseases

In the case of `CC(=O)Oc1ccccc1C(=O)O` [aspirin, acetyl salicylic acid], the “Inhibition of PGI2 synthesis, arterial and venous tissue” value (PGI2 synthesis; 20 mg/day for 1 week, atherosclerotic patients) is given as 50%, the “Urinary PGI2 metabolites / prostacyclin biosynthesis” value (PGI2 synthesis; approximately 40 mg/day) is given as “no significant effect on prostacyclin biosynthesis” and the “Reduction of PGI2 synthesis, arterial and venous tissue” value (PGI2 synthesis; equally low doses (about 40 mg/day)) is given as 50%. The “Bradykinin-stimulated PGI2 formation” value (PGI2 synthesis; oral aspirin 75 mg/day) was “abolished”, the “Gastric mucosa damage, occult bleeding” value (gastric mucosa; applied topically to gastrointestinal tissue) was “damages gastric mucosa and induces occult gastrointestinal bleeding” and the “Effects on gastric mucosa” value (gastric mucosa; intravenous/parenteral vs oral) was “less pronounced with parenteral than with oral administration”. For the same compound, the “Bleeding” value (gastric mucosa; oral diluted solutions vs similar doses in tablet form) was “considerably less bleeding than similar doses in tablet form”, the “Erythema of the gastric mucosa” value (gastric mucosa; [1]) was “approximately 80 % of patients” and the Gastric erosions (gastric mucosa; [1]) was “approximately 40 % of patients”. The Gastric ulcer (gastric mucosa; [1]) was 15 % of patients.
